# Patent publication US9115127B2 (AMGEN INC., priority 2010, dated 2015)
# Structures can show the parent of a compound that is named as a salt.
# Biological target: T1, wild-type human ALK (cytoplasmic domain, amino acids 1058-1620, N-terminal GST fusion) (Homo sapiens, UniProt Q9UM73)
# T1 construct: The cytoplasmic domain (amino acids 1058-1620) of wild-type human ALK; GST (N); made in house; host or cells: SF9 insect cells
# Assay: ALK Inhibition in Enzyme Assay (Lance TR-FRET kinase assay)
# Assay type: biochemical
# Experimental: ALK Inhibition in Enzyme Assay
# Kinase activity of the purified protein was assessed using a Lance® TR-FRET assay. […] The reaction was allowed to proceed for 90 minutes at room temperature and was then terminated with 20 mM EDTA in 50 mM Tris (pH 7.5), 100 mM NaCl, 0.05% BSA, and 0.1% Tween-20. Phosphorylation of the peptide substrate was detected using the Lance® detection reagents streptavidin-allophycocyanin (SA-APC) and Eu-W1024 anti-phosphotyrosine antibody (PT66) from Perkin Elmer Life Sciences (Waltham, Mass.). The plates were read on a RUBY star plate reader (BMG LABTECH, Cary, N.C.) with an excitation wavelength of 320 nm.
# T1 sequence (Q9UM73 1058-1620): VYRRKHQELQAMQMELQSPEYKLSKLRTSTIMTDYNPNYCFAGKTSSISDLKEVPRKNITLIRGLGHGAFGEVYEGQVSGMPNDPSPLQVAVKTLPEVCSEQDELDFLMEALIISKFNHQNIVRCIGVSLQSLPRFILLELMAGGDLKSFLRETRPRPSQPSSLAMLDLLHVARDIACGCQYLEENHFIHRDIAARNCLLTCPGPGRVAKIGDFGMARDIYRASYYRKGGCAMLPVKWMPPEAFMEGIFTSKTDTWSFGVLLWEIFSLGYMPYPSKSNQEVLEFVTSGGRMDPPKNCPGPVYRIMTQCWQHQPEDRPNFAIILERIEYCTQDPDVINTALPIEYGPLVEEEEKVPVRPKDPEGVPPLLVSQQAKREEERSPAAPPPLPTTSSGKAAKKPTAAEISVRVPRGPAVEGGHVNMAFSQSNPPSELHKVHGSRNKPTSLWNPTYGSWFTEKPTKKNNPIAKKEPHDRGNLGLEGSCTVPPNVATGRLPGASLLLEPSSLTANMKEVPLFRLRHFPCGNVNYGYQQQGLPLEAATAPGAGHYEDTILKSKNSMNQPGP
row,Structure (SMILES),IC50 [µM]
1,"CC(C)(O)C1CCN(CCOc2cc3c(cn2)[nH]/c(=N\C(=O)c2cccc(F)c2)n3[C@H]2CC[C@@H](C(=O)N3C[C@@H]4C[C@H]3CN4)CC2)CC1 (relative stereo) [Example 84, (E)-N-(1-(cis-4-(cis-2,5-Diazabicyclo[2.2.1]heptane-2-carbonyl)cyclohexyl)-6-(2-(4-(2-hydroxypropan-2-yl)piperidin-1-yl)ethoxy)-1H-imidazo[4,5-c]pyridin-2(3H)-ylidene)-3-fluorobenzamide]",0.1 to 1
2,"COC(=O)[C@H]1CC[C@@H](n2/c(=N/C(=O)c3ccccc3)[nH]c3cnccc32)CC1 [Example 1, cis-Methyl 4-((E)-2-(benzoylimino)-2,3-dihydro-1H-imidazo[4,5-c]pyridin-1-yl)cyclohexanecarboxylate]",0.1 to 1
3,COC(=O)[C@H]1CC[C@@H](n2/c(=N/C(=O)c3ccc(F)cc3)[nH]c3ccc(CO)cc32)CC1 [Example 2],< 0.05
4,"COC(=O)[C@H]1CC[C@@H](n2c(NC(=O)c3ccc(F)cc3)nc3ccc(CN4CCCCC4)cc32)CC1 [Example 3, cis-Methyl 4-(2-(4-fluorobenzoylimino)-6-(piperidin-1-ylmethyl)-2,3-dihydro-1H-benzo[d]imidazol-1-yl)cyclohexanecarboxylate]",< 0.05
5,"COC(=O)[C@H]1CC[C@@H](n2c(NC(=O)c3ccccc3)nc3ccc(CO)cc32)CC1 [Example 4, cis-Methyl 4-(2-benzamido-6-(hydroxymethyl)-1H-benzo[d]imidazol-1-yl)cyclohexanecarboxylate]",< 0.05
6,"COC(=O)[C@H]1CC[C@@H](n2c(NC(=O)c3ccccc3)nc3ccc(CN4CCOCC4)cc32)CC1 [Example 5, cis-Methyl 4-(2-benzamido-6-(morpholinomethyl)-1H-benzo[d]imidazol-1-yl)cyclohexanecarboxylate]",< 0.05
7,"CCOC(=O)[C@H]1CC[C@@H](n2c(NC(=O)c3ccc(F)cc3)nc3ccc(CO)cc32)CC1 [Example 6, cis-Ethyl 4-(2-(4-fluorobenzamido)-6-(hydroxymethyl)-1H-benzo[D]imidazol-1-yl)cyclohexanecarboxylate]",< 0.05
8,"CCOC(=O)[C@H]1CC[C@@H](n2/c(=N/C(=O)c3ccccc3)[nH]c3ccc(CO)cc32)CC1 [Example 7, cis-Ethyl 4-((E)-2-(benzoylimino)-6-(hydroxymethyl)-2,3-dihydro-1H-benzo[d]imidazol-1-yl)cyclohexanecarboxylate]",< 0.05
9,"CCOC(=O)[C@H]1CC[C@@H](n2/c(=N/C(=O)c3ccc(F)cc3)[nH]c3ccc(CN4CCCCC4)cc32)CC1 [Example 8, cis-Ethyl 4-((E)-2-(4-fluorobenzoylimino)-6-(piperidin-1-ylmethyl)-2,3-dihydro-1H-benzo[d]imidazol-1-yl)cyclohexanecarboxylate]",< 0.05
10,"O=C(Nc1nc2ccc(CN3CCCCC3)cc2n1[C@H]1CC[C@@H](C(=O)O)CC1)c1ccc(F)cc1 [Example 10, cis-4-(2-(4-Fluorobenzamido)-6-(piperidin-1-ylmethyl)-1H-benzo[d]imidazol-1-yl)cyclohexanecarboxylic acid hydrochloride]",0.1 to 1
11,"CCNC(=O)[C@H]1CC[C@@H](n2/c(=N/C(=O)c3ccc(F)cc3)[nH]c3ccc(CN4CCCCC4)cc32)CC1 [Example 11, (E)-N-(1-(cis-4-(Ethylcarbamoyl)cyclohexyl)-6-(piperidin-1-ylmethyl)-1H-benzo[d]imidazol-2(3H)-ylidene)-4-fluorobenzamide]",< 0.05
12,"COC(=O)[C@H]1CC[C@@H](n2/c(=N/C(=O)c3cccc(C(F)(F)F)c3)[nH]c3ccc(CO)cc32)CC1 [Example 12, cis-Methyl 4-((E)-6-(hydroxymethyl)-2-(3-(trifluoromethyl)benzoylimino)-2,3-dihydro-1H-benzo[d]imidazol-1-yl)cyclohexanecarboxyl]",0.1 to 1
13,"O=C(Nc1nc2ccc(CO)cc2n1C12CC3CC(CC(C3)C1)C2)c1ccccc1 [Example 13, N-(1-adamantyl-6-(hydroxymethyl)-1H-benzo[d]imidazol-2-yl)benzamide]",0.1 to 1
14,"COC(=O)[C@H]1CC[C@@H](n2c(NC(=O)c3cccc(C(F)(F)F)c3)nc3ccc(CN4CCCCC4)cc32)CC1 [Example 14, cis-Methyl 4-(6-(piperidin-1-ylmethyl)-2-(3-(trifluoromethyl)benzamido)-1H-benzo[d]imidazol-1-yl)cyclohexanecarboxylate]",< 0.05
15,"CNC(=O)[C@H]1CC[C@@H](n2/c(=N/C(=O)c3ccc(F)cc3)[nH]c3ccc(CN4CCCCC4)cc32)CC1 [Example 15, (E)-N-(1-(cis-4-(Methylcarbamoyl)cyclohexyl)-6-(piperidin-1-ylmethyl)-1H-benzo[d]imidazol-2(3H)-ylidene)-4-fluorobenzamide]",< 0.05
16,O=C(/N=c1\[nH]c2ccc(CN3CCCCC3)cc2n1C12CC3CC(CC(C3)C1)C2)c1ccccc1 [Example 16],0.05 to 0.1
17,"C=CCNS(=O)(=O)c1cccc(C(=O)/N=c2\[nH]c3ccc(CO)cc3n2C23CC4CC(CC(C4)C2)C3)c1 [Example 17, (E)-3-(N-Allylsulfamoyl)-N-(1-adamantyl-6-(hydroxymethyl)-1H-benzo[d]imidazol-2(3H)-ylidene)benzamide]",< 0.05
18,"C=CCNS(=O)(=O)c1cccc(C(=O)Nc2nc3ccc(CN4CCCCC4)cc3n2C23CC4CC(CC(C4)C2)C3)c1 [Example 18, 3-(N-Allylsulfamoyl)-N-(1-adamantyl-6-(piperidin-1-ylmethyl)-1H-benzo[d]imidazol-2-yl)benzamide]",< 0.05
19,"COC(=O)[C@H]1CC[C@@H](n2c(NC(=O)c3ccccc3)nc3ccc(CN4C(C)(C)CCCC4(C)C)cc32)CC1 [Example 19, cis-Methyl 4-(2-benzamido-6-((2,2,6,6-tetramethylpiperidin-1-yl)methyl)-1H-benzo[d]imidazol-1-yl)cyclohexanecarboxylate]",< 0.05
20,"COC(=O)[C@H]1CC[C@@H](n2/c(=N/C(=O)c3ccccc3)[nH]c3cnc(OCCN4CCCCC4)cc32)CC1 [Example 20, cis-Methyl 4-((E)-2-(benzoylimino)-6-(2-(piperidin-1-yl)ethoxy)-2,3-dihydro-1H-imidazo[4,5-c]pyridin-1-yl)cyclohexanecarboxylate]",< 0.05
21,"O=C(/N=c1\[nH]c2cnc(OCCN3CCCCC3)cc2n1[C@H]1CC[C@@H](C(=O)O)CC1)c1ccccc1 [Example 25, cis-4-((E)-2-(Benzoylimino)-6-(2-(piperidin-1-yl)ethoxy)-2,3-dihydro-1H-imidazo[4,5-c]pyridin-1-yl)cyclohexanecarboxylic acid]",1 to 5
22,CCNC(=O)[C@H]1CC[C@@H](n2/c(=N/C(=O)c3ccccc3)[nH]c3cnc(OCCN4CCCCC4)cc32)CC1 [Example 26],< 0.05
23,"C=CCNS(=O)(=O)c1cc(C(=O)Nc2nc3ccc(CO)cc3n2[C@H]2CC[C@@H](C(=O)OC)CC2)ccc1F [Example 27, cis-Methyl 4-(2-(3-(N-allylsulfamoyl)-4-fluorobenzamido)-6-(hydroxymethyl)-1H-benzo[d]imidazol-1-yl)cyclohexanecarboxylate]",0.1 to 1
24,"COCCCNS(=O)(=O)c1cc(C(=O)Nc2nc3ccc(CO)cc3n2[C@H]2CC[C@@H](C(=O)OC)CC2)ccc1F [Example 28, cis-Methyl 4-(2-(4-fluoro-3-(N-(3-methoxypropyl)sulfamoyl)benzamido)-6-(hydroxymethyl)-1H-benzo[d]imidazol-1-yl)cyclohexanecarboxylate]",0.1 to 1
25,"CC(C)(C)NC(=O)[C@H]1CC[C@@H](n2c(NC(=O)c3ccccc3)nc3ccc(CN4CCCCC4)cc32)CC1 [Example 29, N-(1-(cis-4-(tert-Butylcarbamoyl)cyclohexyl)-6-(piperidin-1-ylmethyl)-1H-benzo[d]imidazol-2-yl)benzamide]",< 0.05
26,"O=C(/N=c1\[nH]c2ccc(CN3CCCCC3)cc2n1[C@H]1CC[C@@H](C(=O)NC2CC2)CC1)c1ccc(F)cc1 [Example 31, (E)-N-(1-(cis-4-(Cyclopropylcarbamoyl)cyclohexyl)-6-(piperidin-1-ylmethyl)-1H-benzo[d]imidazol-2(3H)-ylidene)-4-fluorobenzamide]",< 0.05
27,"O=C(/N=c1\[nH]c2ccc(CN3CCCCC3)cc2n1[C@H]1CC[C@@H](C(=O)NCC2CC2)CC1)c1ccc(F)cc1 [Example 32, (E)-N-(1-(cis-4-(Cyclopropylmethylcarbamoyl)cyclohexyl)-6-(piperidin-1-ylmethyl)-1H-benzo[d]imidazol-2(3H)-ylidene)-4-fluorobenzamide]",< 0.05
28,"C=CCNS(=O)(=O)c1cc(C(=O)Nc2nc3ccc(CN4CCCCC4)cc3n2[C@H]2CC[C@@H](C(=O)OC)CC2)ccc1F [Example 33, cis-Methyl 4-(2-(3-(N-allylsulfamoyl)-4-fluorobenzamido)-6-(piperidin-1-ylmethyl)-1H-benzo[d]imidazol-1-yl)cyclohexanecarboxylate]",< 0.05
29,"C=CCNS(=O)(=O)c1cc(C(=O)Nc2nc3ccc(CN4CCCCC4)cc3n2[C@H]2CC[C@@H](C(=O)O)CC2)ccc1F [Example 34, cis-4-(2-(3-(N-Allylsulfamoyl)-4-fluorobenzamido)-6-(piperidin-1-ylmethyl)-1H-benzo[d]imidazol-1-yl)cyclohexanecarboxylic acid]",0.1 to 1
30,"CC(C)CNC(=O)[C@H]1CC[C@@H](n2/c(=N/C(=O)c3ccc(F)cc3)[nH]c3ccc(CN4CCCCC4)cc32)CC1 [Example 35, (E)-4-Fluoro-N-(1-(cis-4-(isobutylcarbamoyl)cyclohexyl)-6-(piperidin-1-ylmethyl)-1H-benzo[d]imidazol-2(3H)-ylidene)benzamide]",< 0.05
